Five molecules from ChEMBL document CHEMBL4765478, “Lithocholic Acid Derivatives as Potent Vitamin D Receptor Agonists” (J Med Chem, 2021) can be followed below.

The target in test [1] is T1, Vitamin D3 receptor (Bos taurus) (UniProt Q28037).
T1 sequence (whole entry): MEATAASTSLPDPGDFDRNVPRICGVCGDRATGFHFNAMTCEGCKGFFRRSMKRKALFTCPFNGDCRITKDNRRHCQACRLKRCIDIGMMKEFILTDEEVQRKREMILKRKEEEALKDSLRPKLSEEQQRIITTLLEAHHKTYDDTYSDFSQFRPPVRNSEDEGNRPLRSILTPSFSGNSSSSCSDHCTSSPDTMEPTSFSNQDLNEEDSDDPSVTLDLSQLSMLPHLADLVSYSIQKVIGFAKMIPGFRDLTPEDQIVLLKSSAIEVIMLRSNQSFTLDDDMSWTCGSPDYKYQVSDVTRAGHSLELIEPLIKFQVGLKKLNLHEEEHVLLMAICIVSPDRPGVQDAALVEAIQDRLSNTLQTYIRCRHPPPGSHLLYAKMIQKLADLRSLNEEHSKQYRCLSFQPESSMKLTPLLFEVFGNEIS
Nature of the test: (§1) Displacement of [3H]-1-alpha,25-(OH)2D3 from bovine thymus VDR incubated for 18 hrs by competitive binding assay. The conditions noted are these: filed as agonist. For orientation: Displacement assays read how much labelled ligand stays bound in the presence of the test substance.

Test [2] addresses T2, Vitamin D3 receptor (Bos taurus, UniProt Q28037).
T2 sequence (Q28037 whole entry): T1 sequence (whole entry)
Described as §1.

Test [3] deals with T3, Vitamin D3 receptor (Homo sapiens, UniProt P11473).
T3 sequence (P11473 whole entry): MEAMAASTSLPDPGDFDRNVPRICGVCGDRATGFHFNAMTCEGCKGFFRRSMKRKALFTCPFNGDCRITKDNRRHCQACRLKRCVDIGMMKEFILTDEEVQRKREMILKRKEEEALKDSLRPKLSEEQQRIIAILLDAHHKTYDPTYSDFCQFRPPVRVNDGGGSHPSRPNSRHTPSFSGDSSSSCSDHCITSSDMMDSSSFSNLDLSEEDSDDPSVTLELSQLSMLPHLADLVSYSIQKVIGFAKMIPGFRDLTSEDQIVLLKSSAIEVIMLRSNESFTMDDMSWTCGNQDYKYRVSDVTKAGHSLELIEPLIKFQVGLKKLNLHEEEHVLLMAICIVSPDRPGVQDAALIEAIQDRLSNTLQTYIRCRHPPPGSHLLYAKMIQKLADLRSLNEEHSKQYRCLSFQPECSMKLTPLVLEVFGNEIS
Nature of the test: Agonist activity at human VDR expressed in African green monkey COS7 cells expressing mouse osteopontin VDRE assessed as induction of receptor transactivation incubated for 16 hrs by luciferase reporter gene assay. The test is classed as cell-based. (A reporter such as luciferase makes a cellular process visible.)

Test [4] addresses T3, Vitamin D3 receptor. In words: Agonist activity at human VDR expressed in HEK293 cells expressing mouse osteopontin VDRE assessed as induction of receptor transactivation incubated for 16 hrs by luciferase reporter gene assay. The test is classed as cell-based.
In test [5] the target is T4, Vitamin D3 receptor (Homo sapiens) (UniProt P11473).
T4 sequence (whole entry): T3 sequence (P11473 whole entry)
In words: Agonist activity at VDR in human HL-60 cells assessed as induction of cell differentiation of promyelocytes to monocytes at 1 uM after 4 days by NBT reduction assay. The conditions noted are these: filed as agonist, time 4.0 day. In kind it is cell-based.

Test [6] deals with T4, Vitamin D3 receptor (Homo sapiens). Nature of the test: Agonist activity at VDR in human HL-60 cells assessed as induction of cell differentiation of promyelocytes to monocytes at 0.1 nM after 4 days by NBT reduction assay. The test is classed as cell-based. The conditions noted are these: filed as agonist, time 4.0 day.
Test [7] has the same target. In words: Potency index, ratio of EC50 for lithocholic acid to EC50 for test compound for agonist activity at VDR in human HL60 cells assessed as induction of cell differentiation of promyelocytes to monocytes after 4 days by NBT reduction assay. The conditions noted are these: HL-60, time 4.0 day. In kind it is cell-based.
For test [8] the target is unchanged. Nature of the test: Potency index, ratio of EC50 for 1-alpha,25-(OH)2D3 to EC50 for test compound for agonist activity at VDR in human HL60 cells assessed as induction of cell differentiation of promyelocytes to monocytes after 4 days by NBT reduction assay. The conditions noted are these: HL-60, time 4.0 day. The test is classed as cell-based.

Activity calls are given as the source filed them. The rule behind the calls is not given here. A value given as a limit tells only on which side of the number the result lay.

`C[C@H](CCC(=O)O)[C@H]1CC[C@H]2[C@@H]3CC[C@@H]4C[C@@H](CC(C)(C)O)CC[C@]4(C)[C@H]3CC[C@]12C`: the Activity result in test [1] is “Dose-dependent effect”. The molecule further returned an IC50 in test [2] of 67300 pM. Further, the EC50 came out at 240 pM in test [3] and 14 pM in test [4].

On to `CC(=O)O[C@@H]1CC[C@@]2(C)[C@H](CC[C@@H]3[C@@H]2CC[C@]2(C)[C@@H]([C@H](C)CCC(=O)O)CC[C@@H]32)C1`, for which, in test [5], the outcome was Active.

`C[C@H](CCC(=O)O)[C@H]1CC[C@H]2[C@@H]3CC[C@@H]4C[C@H](C(C)(C)O)CC[C@]4(C)[C@H]3CC[C@]12C`: in test [5], the result was Active.

Turning to `C[C@H](CCC(=O)O)[C@H]1CC[C@H]2[C@@H]3CC[C@@H]4C[C@H](CC(C)(C)O)CC[C@]4(C)[C@H]3CC[C@]12C`, in test [6], the result was Active. The Ratio EC50 in test [7] is under 10000; in test [8] it was 3. For the same molecule, the Activity result in test [1] was “Dose-dependent effect”. Moreover, the IC50 in test [2] is 2090 pM. Moreover, the figures for the EC50 in test [3] and in test [4] were 1000 pM and 150 pM, respectively.

`C[C@H](CCC(=O)O)[C@H]1CC[C@H]2[C@@H]3CC[C@@H]4C[C@H](OS(C)(=O)=O)CC[C@]4(C)[C@H]3CC[C@]12C`: in test [5], the outcome was Active.

By IC50 is commonly meant the midpoint of a concentration-inhibition curve. Usually EC50 stands for the midpoint of the concentration-response curve.
